Source: ChEMBL document CHEMBL5608229, “Innovative Multistage ML-QSAR Models for Malaria: From Data to Discovery” (ACS Med Chem Lett, 2024)

Columns and labels:
[1] = tested on: Plasmodium falciparum; assay: Antiplasmodial activity against […] Plasmodium falciparum NF54 assessed as parasite growth inhibition at 5 uM incubated for 48 hrs by luciferase based analysis relative to control; assay type: functional
[2] = Cytotoxicity against African green monkey COS-7 cells incubated for 72 hrs by MTT assay; assay type: toxicity, cell-based; settings: chlorocebus aethiops
[3] = tested on: Plasmodium berghei; assay: Antiplasmodial activity against […] Plasmodium berghei infected in mouse model assessed as parasite growth inhibition at 10 uM pre-infected mouse with parasite followed by blood collection from mouse and subsequent addition of compound in blood measured after 24 hrs by nano-luciferase based analysis relative to control; assay type: functional; settings: read-out: INH
[4] = Cytotoxicity against human HepG2 cells incubated for 72 hrs by MTT assay; assay type: toxicity, cell-based
[5] = tested on: Plasmodium falciparum; assay: Antiplasmodial activity against asexual blood-stage CQ-sensitive Plasmodium falciparum 3D7 infected in RBC assessed as parasite growth reduction incubated for 72 hrs by SybrGreen dye based analysis; assay type: functional, organism-based; settings: 3D7, Erythrocyte
[6] = tested on: Plasmodium falciparum; assay: Antiplasmodial activity against asexual blood-stage multidrug-resistant Plasmodium falciparum Dd2 infected in RBC assessed as parasite growth reduction incubated for 72 hrs by SybrGreen dye based analysis; assay type: functional, organism-based; settings: Dd2, Erythrocyte
[7] = tested on: Plasmodium berghei; assay: Antiplasmodial activity against asexual liver schizonts-stage Plasmodium berghei infected in human Huh-7 cells assessed as parasite growth inhibition at 10 uM pretreated parasite with compound for 1 hr followed by parasitic infection in cells for 46 hrs by bioluminescence assay relative to control; assay type: functional
[8] = tested on: Plasmodium falciparum; assay: Antiplasmodial activity against asexual blood-stage multidrug-resistant Plasmodium falciparum Dd2 infected in RBC assessed as parasite growth inhibition at 5 uM incubated for 72 hrs by SybrGreen dye based analysis relative to control; assay type: functional; settings: Dd2, Erythrocyte
[9] = Selectivity index, ratio of CC50 for human HepG2 cells to EC50 for asexual blood-stage chloroquine-sensitive Plasmodium falciparum 3D7 infected in RBC
[10] = tested on: Plasmodium falciparum; assay: Antiplasmodial activity against asexual blood-stage CQ-sensitive Plasmodium falciparum 3D7 infected in RBC assessed as parasite growth inhibition at 5 uM incubated for 72 hrs by SybrGreen dye based analysis relative to control; assay type: functional; settings: 3D7, Erythrocyte
[11] = Selectivity index, ratio of CC50 for African green monkey COS-7 cells to EC50 for asexual blood-stage CQ-sensitive Plasmodium falciparum 3D7 infected in RBC; assay type: toxicity; settings: read-out: Ratio CC50/EC50

Structure (SMILES)	inhibition at 5 µM [1]	CC50 at 72 h [2]	percent ookinete growth inhibition (ex vivo) at 10 µM [3]	CC50 at 72 h [4]	EC50 [5]	EC50 [6]	inhibition at 10 µM [7]	inhibition at 5 µM [8]	selectivity ratio [9]	inhibition at 5 µM [10]	selectivity ratio [11]
Cc1ccc(Nc2nc(-c3ccccc3Cl)nc3ccccc23)cc1	1%	42.8 µM	45.6%	33.2 µM	> 10 µM						
COc1cc2nc(NCCc3nc(=O)c4c(C)c(C)sc4[nH]3)nc(N)c2cc1OC	94%	12.3 µM	65%	13.6 µM	1.38 µM	3.67 µM	90.3%	≥ 50%	9.9	≥ 50%	9
CN(C)CCCN(CCCN(C)C)Cc1cccc2ccccc12	33%	> 100 µM	3.26%	> 100 µM	5.46 µM	2.64 µM	0%	> 50%	> 18	> 50%	> 18
COCCCNCCCCOc1ccc2ccccc2c1Br	51.3%	11 µM	66.1%	10.4 µM	3.04 µM	1.12 µM	49.4%	≥ 50%	3.4	≥ 50%	2.7
CCc1nc(N)nc(N)c1-c1ccc(Cl)cc1 [PYRIMETHAMINE]					0.039 µM	6.01 µM					
COc1ccc(CN2CCCC(CO)(Cc3ccccc3)C2)c(C)c1C (configuration not stated)	13.5%	50.4 µM	42.7%	44.1 µM	> 10 µM		73.9%				
COc1cc2nnc(NCC3(N(C)C)CCCCC3)nc2cc1OC	94%	51 µM	65.3%	93.1 µM	0.65 µM	2.65 µM	0%	> 50%	142	> 50%	78
c1ccc2c(CCNC34CC5CC(CC(C5)C3)C4)c[nH]c2c1	12%	77.3 µM		53.1 µM	11.8 µM		0%		4.5		7
c1ccc2c(CCNC3CC4CCC3C4)c[nH]c2c1 (configuration not stated)	11.5%	> 100 µM		> 100 µM	> 10 µM		0%				
c1ccc(C23CN4CCN(CC(C4)C2NCc2ccc4c(c2)OCCO4)C3)cc1 (configuration not stated)	6%	> 100 µM	0%	> 100 µM	> 10 µM		0%				
c1ccc(CCN2CCC(NC34CC5CC(CC(C5)C3)C4)CC2)cc1	86%	48.3 µM	16%	38.1 µM	1.78 µM	0.43 µM	0%	> 90%	21	> 90%	27
CCCOc1c(Br)cc(C2C3=C(CCCC3=O)NC3=C2C(=O)CCC3)cc1OC	9.5%	56.4 µM	56.8%	30.5 µM	> 10 µM		6.96%				
c1ccc(C23CN4CCN(CC(C4)C2NCc2nc4ccccc4[nH]2)C3)cc1 (configuration not stated)	20%	> 100 µM	56%	> 100 µM	> 10 µM		0%				
C=CCc1cc(CN2CCC3(CC2)CN(C)CCN3C)ccc1O	51%	> 100 µM	5.43%	> 100 µM	1.49 µM	2.59 µM	0%	> 50%	> 67	> 50%	> 67
C[C@H]1[C@H](OC(=O)CCC(=O)O)O[C@@H]2O[C@@]3(C)CC[C@H]4[C@H](C)CC[C@@H]1[C@@]24OO3 [ARTESUNATE]					0.002 µM	0.002 µM					
CCc1ccc(C2CC(=O)C3=C(C2)NC(C)=C(C(=O)OCCc2ccccc2)C3c2ccncc2)cc1 (configuration not stated)	14%	125 µM	11%	54.4 µM	13.5 µM		92.2%		4		9
Oc1c(CN2CCCCC2)cc(CN2CCCCC2)nc1-c1ccccc1	51%	> 100 µM	0%	> 100 µM	1.55 µM	1.65 µM	0%	> 50%	> 64	> 50%	> 64
Clc1ccc(-c2nc(Nc3ccc(I)cc3)c3ccccc3n2)cc1	6%	51.5 µM	44.7%	34.8 µM	> 10 µM						
CCN(CC)CCCC(C)Nc1ccnc2cc(Cl)ccc12 (configuration not stated) [CHLOROQUINE]					0.008 µM	0.055 µM					
